Measured values: patent US12570603B2, “FABP4/5 inhibitors, methods of use and methods of making” (Novius Therapeutics, LLC, priority 2021, dated 2026)

Experiments:
[1] = tested on: MB-231 shC and shF5 cells; assay: Proliferation assay, MB-231 lines expressing control shRNA (shC) or FABP5 shRNA (shF5); type: cell-based; settings: MB-231 shC vs shF5, different concentrations
Procedure: (§1) 2000 cells were plated in each well of 96-well plate. The next day cells were treated with compounds and incubated in Incucyte for 4 days. Images taken every 4 hours for the duration of the time were analyzed to calculate percentage of confluency in response to the treatments. Growth inhibition was calculated as 1−(percentage of viable cells out of untreated cells).

[2] = tested on: PPARδ targets PDPK1 and CD47 in TNBC cells MB-231; assay: Real-time PCR of PPARδ targets; type: cell-based; settings: MB-231, 1 μM, 6 hours
Procedure: (§2) Cells were treated with a compound for 6 h. then lysed and RNA was extracted using Trizol, according to the manufacturer's instructions. cDNA was generated using GeneAmp RNA PCR (Applied Biosystems). qPCR was carried out using TaqMan chemistry and Assays-on-Demand probes (Applied Biosystems). 18s (4352930) rRNA was used for normalization. Relative expression was calculated as 2^−ΔΔCT.

[3] = tested on: FABP4 together with PPARγ; assay: Transcriptional activation assay in cells overexpressing FABP4, with PPARγ activator rosiglitazone; type: cell-based; settings: FIG. 7
Procedure: (§3) COS-7 were cultured in 6-well plates and co-transfected with either a luciferase reporter driven by 3 copies of a PPRE and expression vector for either PPARδ, PPARα or PPARγ together with a vector harboring cDNA for β-galactosidase, serving as a transfection control. To test whether FABP4 or FABP5 mediate activation of their cognate receptors PPARγ and PPARδ, respectively, cells were also co-transfected with a plasmid harboring sequence of either FABP4 or FABP5. 18 h post-transfection, cells were placed in a serum-free medium and treated with agonist/compound. 18 h. later, cells were lysed, luciferase activity was assayed (Promega, WI, USA) and corrected for transfection efficiency by the activity of β-galactosidase.

[4] = tested on: PPARδ targets PDPK1 and CD47 in TNBC cells MB-157; assay: Real-time PCR of PPARδ targets; type: cell-based, human; settings: MB-157, 1 μM, 6 hours
Procedure: as §2

[5] = tested on: TNBC lines and MCF7; assay: Proliferation assay in multiple TNBC lines and MCF7, MB-231 shF5 as control; type: cell-based
Procedure: as §1

[6] = tested on: FABP5 together with PPARδ; assay: Transcriptional activation assay in cells overexpressing FABP5, with PPARδ activator GW0742; type: cell-based; settings: together with GW0742, FIG. 8
Procedure: as §3

[7] = tested on: PPARδ; assay: Transactivation assay, PPRE luciferase reporter in COS-7 cells; type: cell-based
Procedure: as §3
(§4) COS-7 were cultured in 6-well plates and co-transfected with either a luciferase reporter driven by 3 copies of a PPRE and expression vector for either PPARδ, PPARα or PPARγ together with a vector harboring cDNA for β-galactosidase, serving as a transfection control. 18 h. post-transfection, cells were placed in a serum-free medium and treated with agonist/compound. 18 h. later, cells were lysed, luciferase activity was assayed (Promega, WI, USA) and corrected for transfection efficiency by the activity of β-galactosidase.

[8] = tested on: PPARγ; assay: as above; type: cell-based; settings: for activation of PPARγ: 5 μM, COS7 cells, FIG. 36C
Procedure: as §3, §4

[9] = molecular target: T1, FABP5 (Homo sapiens, UniProt Q01469); assay: FABP binding assay by fluorescence titration (ANS competition); settings: fluorescence competition with ANS; read-out: FABP5 binding
T1 construct: made in house
T1 sequence (Q01469 whole entry, species assumed): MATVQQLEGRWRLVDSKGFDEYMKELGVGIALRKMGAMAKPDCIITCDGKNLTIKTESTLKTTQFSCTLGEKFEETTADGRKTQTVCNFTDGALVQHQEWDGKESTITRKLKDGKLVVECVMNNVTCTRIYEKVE
Procedure: (§5) This example illustrates a binding assay study used to determine the binding affinity of the various inhibitor compounds disclosed herein with the various FABPs: FABP3, FABP4, FABP5 and FABP7.
(§6) Binding assays for FABP3, FABP4, FABP5 and FABP7 were carried out by fluorescence titrations. FABPs were bacterially expressed and purified and the equilibrium dissociation constants (Kd) that characterize their interactions with different compounds were measured by fluorescence competition assays. The method entails two steps as described in e.g., Lin, Q. et al., “Ligand selectivity of the peroxisome proliferator-activated receptor alpha,” Biochemistry 38, 185-190, doi:10.1021/bi9816094 bi9816094 [pii](1999). In the first step, Kd for the association of the protein with the fluorescent fatty acid probe ANS was measured. Protein ([…]) was titrated with ANS from a concentrated solution in DMSO. Ligand binding was monitored by following the increase in the fluorescence of the ligand upon binding to the protein, and Kd for the association of ANS with the each FABP was computed from titration curves as described in e.g., Norris, A. W. & Li, E., “Fluorometric titration of the CRABPs,” Methods Mol Biol 89, 123-139 (1998)). Kds for binding of non-fluorescent ligands were then measured by monitoring their ability to displace ANS in the binding pocket of the protein. Each FABP was pre-complexed with ANS at 1:1 molar ratio and titrated with the different compounds whose binding was reflected by a decrease in probe fluorescence. Kds were extracted from the EC50 of the competition curve and the measured Kd for ANS.
(§7) Binding assays for FABP3, FABP4, FABP5 and FABP7 were carried out by fluorescence titrations as described in Example 16.

[10] = molecular target: T2, FABP4 (Homo sapiens, UniProt P15090); assay: as above; settings: fluorescence competition with ANS; read-out: FABP4 binding
T2 construct: made in house
T2 sequence (P15090 whole entry, species assumed): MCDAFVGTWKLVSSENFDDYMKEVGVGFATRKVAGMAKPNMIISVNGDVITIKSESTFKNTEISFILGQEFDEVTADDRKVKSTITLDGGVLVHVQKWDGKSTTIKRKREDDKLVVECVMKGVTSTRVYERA
Procedure: as §5, §6, §7

[11] = tested on: MB-231 cells; assay: Proliferation assay (Incucyte confluency, 4 days); type: cell-based; settings: MB-231, serial dilution
Procedure: (§8) COS-7, MDA-MB-231, HepG2, LX-2, 3T3-L1, NPG, and MCF7 were cultured in Dulbecco's modified Eagle's medium (DMEM) supplemented with 10% fetal bovine serum (Invitrogen Life Sciences, Carlsbad, CA). MDA-MB-157 and MB-549 cells were cultured in L-Glutamine containing RPMI medium supplemented with 10% fetal calf serum (Invitrogen Life Sciences, Carlsbad, CA). For proliferation assays, 2000 cells were plated in each well of 96-well plate. The next day cells were treated with compounds and incubated in Incucyte for 4 days. Images taken every 4 hours for the duration of the time were analyzed to calculate percentage of confluency in response to the treatments.
The TNBC line MB-231 was used to calculate the efficacy of compounds B104, B106, B110, B116, and B118 in inhibiting proliferation of the cancer cells. Cells were treated with serial dilution of the compounds or the known FABP5/7 inhibitor SBF-I26 and proliferation was measured in Incucyte by calculating percentage of confluency every 4 hours over 4 days. […] The EC50 for each compound was calculated by fitting the percentage of inhibition vs. the logarithmic transformation of the used concentrations (FIG. 37B and FIG. 37D). Additionally, the effect of B116 and B118 was also tested on proliferation of the human TNBC lines MDA-MB-157 (FIG. 37E) and MB-549 (FIG. 37F).

[12] = tested on: NPG human neuroblastoma cells; assay: Neuroblastoma proliferation assay with or without all-trans retinoic acid; type: cell-based; settings: for proliferation of neuroblastoma cells in combination with atRA: combined with atRA; for proliferation of neuroblastoma cells: compound alone, 4 days
Procedure: as §8
Activation of PPARβ by atRA shifts the signaling of this vitamin from its cognate receptor RAR that is known to have anti-carcinogenic activities in multiple cancers to the pro-carcinogenic PPARβ. […] Accordingly, NB, human NPG cells were used to test the effect of FABP5 inhibitors on cells' proliferation in combination with atRA. Cells were treated with either B104 or B108 in the presence or absence of atRA.

[13] = molecular target: T3, PPARα (Homo sapiens, UniProt Q07869); assay: Transactivation assay, PPRE luciferase reporter in COS-7 cells; type: cell-based; settings: 5 μM, COS7 cells, FIG. 36B
T3 construct: expressed in transfected cells; host or cells: COS-7
T3 sequence (Q07869 whole entry, species assumed): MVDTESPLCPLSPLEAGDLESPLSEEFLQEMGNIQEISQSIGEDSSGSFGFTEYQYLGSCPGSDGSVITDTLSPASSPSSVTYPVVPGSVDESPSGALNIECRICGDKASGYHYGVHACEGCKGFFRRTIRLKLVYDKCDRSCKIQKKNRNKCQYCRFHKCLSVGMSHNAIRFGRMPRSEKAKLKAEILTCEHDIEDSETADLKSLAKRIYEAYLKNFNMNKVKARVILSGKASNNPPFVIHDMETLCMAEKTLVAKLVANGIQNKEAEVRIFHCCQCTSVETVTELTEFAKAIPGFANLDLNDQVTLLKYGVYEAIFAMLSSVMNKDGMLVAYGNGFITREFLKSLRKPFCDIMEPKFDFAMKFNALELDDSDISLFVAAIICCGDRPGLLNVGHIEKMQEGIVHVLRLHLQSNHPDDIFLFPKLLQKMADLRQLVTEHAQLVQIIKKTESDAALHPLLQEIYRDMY
Procedure: as §3, §4

With `C#CCOc1cc(NC(=O)CSCC(=O)O)c(Cl)cc1Cl` [Compound B9] the “TNBC cell growth, shC versus shF5” value [1] was “suppressed TNBC cell growth only in the cells highly expressing FABP5”, the “levels of endogenous PPARδ targets PDPK1 and CD47” value [2] was “significantly lower” and the “inhibition of PPARγ activity in cells overexpressing FABP4” value [3] was “inhibit activity of the nuclear receptors only in cells that express the binding proteins”. For the same compound, the “levels of endogenous PPARδ targets PDPK1 and CD47” value [4] was “significantly lower”, the “growth inhibition of TNBC lines by FABP5 level” value [5] was “inhibited growth of only TNBC lines expressing high FABP5 levels” and the “inhibition of PPARδ activity in cells overexpressing FABP5” value [6] was “inhibit activity of the nuclear receptors only in cells that express the binding proteins”. The “activation of transcription by PPARδ” value ([7]; compared to GW0742, FIG. 5) was “did not active transcription” and the “activation of transcription by PPARγ” value ([8]; tested against rosiglitazone, FIG. 4) was “did not activate transcription”.
`CC(C)Oc1cc(NC(=O)C2CCC(C(=O)O)O2)c(Cl)cc1Cl` (centres unmarked) [Compound B112, 5-((2,4-dichloro-5-isopropoxyphenyl)carbamoyl)tetrahydrofuran-2-carboxylic acid] showed a Kd [9] of 15 nM and a Kd [10] of 116 nM.
Work on `CC(C)Oc1cc(NC(=O)CCCC(=O)O)c(Cl)cc1Cl` [Compound B114, 5-((2,4-dichloro-5-isopropoxyphenyl)amino)-5-oxopentanoic acid] yielded a Kd [9] of 6 nM and a Kd [10] of 218 nM.
With `CC(C)Oc1cc(NC(=O)COCC(=O)O)c(Cl)cc1Cl` [Compound B110, 2-(2-((2,4-dichloro-5-isopropoxyphenyl)amino)-2-oxoethoxy)acetic acid] the “suppression of growth of TNBC cells compared with SBF-I26” value (shortened to “suppression … compared with SBF-I26”) [11] was “Suppress Growth of TNBC Cells More Effectively than the Commercially Available Inhibitor SBF-I26”, the Kd [9] was 15 nM and the Kd [10] was 242 nM. The “activation of transcription by PPARδ” value ([7]; 5 μM, COS7 cells, FIG. 36A) was “do not Activate Transcription”.
For `CC(C)Oc1cc(NC(=O)CSC(C)(C)C(=O)O)c(Cl)cc1Cl` [Compound B104, 2-((2-((2,4-dichloro-5-isopropoxyphenyl)amino)-2-oxoethyl)thio)-2-methylpropanoic acid], the “suppression … compared with SBF-I26” value [11] was “Suppress Growth of TNBC Cells More Effectively than the Commercially Available Inhibitor SBF-I26”, the “proliferation of neuroblastoma cells in combination with atRA” value [12] was “enhanced” and the “proliferation of neuroblastoma cells” value [12] was “significantly inhibited proliferation”. For the same compound, the Kd [9] was 7 nM, the Kd [10] was 97 nM and the “activation of transcription by PPARδ” value ([7]; 5 μM, COS7 cells, FIG. 36A) was “do not Activate Transcription”. The “activation of PPARα” value [13] was “activate both PPARα and PPARγ” and the “activation of PPARγ” value [8] was “activate both PPARα and PPARγ”.
Work on `CC(C)Oc1cc(NC(=O)C(C)SC(C)C(=O)O)c(Cl)cc1Cl` (centres unmarked) [Compound B106, 2-((1-((2,4-dichloro-5-isopropoxyphenyl)amino)-1-oxopropan-2-yl)thio)propanoic acid] yielded a Kd [9] of 15 nM and a Kd [10] of 286 nM.
In the case of `CC(C)Oc1cc(NC(=O)C2CCC(C(=O)O)S2)c(Cl)cc1Cl` (centres unmarked) [Compound B108, 5-((2,4-dichloro-5-isopropoxyphenyl)-carbamoyl)tetrahydrothiophene-2-carboxylic acid], the “suppression … compared with SBF-I26” value [11] is reported as “Suppress Growth of TNBC Cells More Effectively than the Commercially Available Inhibitor SBF-I26”, the “proliferation of neuroblastoma cells in combination with atRA” value [12] is reported as “enhanced” and the “proliferation of neuroblastoma cells” value [12] is reported as “significantly inhibited proliferation”. For the same compound, the Kd [9] was 2 nM, the Kd [10] was 48 nM and the “activation of transcription by PPARδ” value ([7]; 5 μM, COS7 cells, FIG. 36A) was “do not Activate Transcription”. The “activation of PPARγ” value [8] was “activated PPARγ”.
In the case of `CC(C)Oc1cc(NC(=O)CSC(C)C(=O)O)c(Cl)cc1Cl` (centres unmarked) [Compound B102, 2-((2-((2,4-dichloro-5-isopropoxyphenyl)amino)-2-oxoethyl)thio)propanoic acid], the Kd [9] is reported as 6 nM and the Kd [10] is reported as 116 nM.
